# Source: ChEMBL document CHEMBL2424533, “Design and regioselective synthesis of trifluoromethylquinolone derivatives as potent antimicrobial agents” (2013)
# The source made the active and inactive calls. No cut-off for these calls is given here.
# Experiments:
# Candida albicans [1] = assay: Antimicrobial activity against Candida albicans MTCC 183 after 12 hrs by well diffusion method; format: functional; conditions: MTCC 183, 12 h
# Pseudomonas aeruginosa [2] = assay: Antimicrobial activity against Pseudomonas aeruginosa MTCC 4673 at 100 ug/mL after 12 hrs by well diffusion method; format: functional; conditions: for zone of inhibition at 100 µg/mL: MTCC 4673, 12 h, read-out: DIZ
# Staphylococcus aureus [3] = assay: Antimicrobial activity against Staphylococcus aureus MTCC 3160 at 100 ug/mL after 12 hrs by well diffusion method; format: functional; conditions: for zone of inhibition at 100 µg/mL: MTCC 3160, 12 h, read-out: DIZ
# Salmonella typhimurium [4] = assay: Antimicrobial activity against Salmonella typhimurium MTCC 3732 at 100 ug/mL after 12 hrs by well diffusion method; format: functional; conditions: for diameter of the inhibition zone (DIZ): Salmonella enterica subsp. enterica serovar Typhimurium; for zone of inhibition at 100 µg/mL: Salmonella enterica, MTCC 3732, 12 h, read-out: DIZ
# Salmonella typhimurium [5] = assay: Antimicrobial activity against Salmonella typhimurium MTCC 3732 after 12 hrs by well diffusion method; format: functional, Salmonella enterica subsp. enterica serovar Typhimurium; conditions: Salmonella enterica, MTCC 3732, 12 h
# Salmonella typhimurium [6] = assay: Antimicrobial activity against Salmonella typhimurium MTCC 3732 at 50 ug/mL after 12 hrs by well diffusion method; format: functional; conditions: for diameter of the inhibition zone (DIZ): Salmonella enterica subsp. enterica serovar Typhimurium; for zone of inhibition at 50 µg/mL: Salmonella enterica, MTCC 3732, 12 h, read-out: DIZ
# Candida albicans [7] = assay: Antimicrobial activity against Candida albicans MTCC 183 at 50 ug/mL after 12 hrs by well diffusion method; format: functional; conditions: for zone of inhibition at 50 µg/mL: MTCC 183, 12 h, read-out: DIZ
# [8] = tested on: Mycolicibacterium smegmatis; assay: Antimicrobial activity against Mycobacterium smegmatis MTCC 943 at 100 ug/mL after 12 hrs by well diffusion method; format: functional; conditions: for zone of inhibition at 100 µg/mL: MTCC 943, 12 h, read-out: DIZ
# Candida albicans [9] = assay: Antimicrobial activity against Candida albicans MTCC 183 at 100 ug/mL after 12 hrs by well diffusion method; format: functional; conditions: for zone of inhibition at 100 µg/mL: MTCC 183, 12 h, read-out: DIZ
# Staphylococcus aureus [10] = assay: Antimicrobial activity against Staphylococcus aureus MTCC 3160 after 12 hrs by well diffusion method; format: functional; conditions: MTCC 3160, 12 h
# Staphylococcus aureus [11] = conditions: MTCC 3160, 50 ug/mL
# Description: Antimicrobial activity against Staphylococcus aureus MTCC 3160 at 50 ug/mL after 12 hrs by well diffusion method
# Pseudomonas aeruginosa [12] = assay: Antimicrobial activity against Pseudomonas aeruginosa MTCC 4673 at 50 ug/mL after 12 hrs by well diffusion method; format: functional; conditions: for zone of inhibition at 50 µg/mL: MTCC 4673, 12 h, read-out: DIZ
# Pseudomonas aeruginosa [13] = assay: Antimicrobial activity against Pseudomonas aeruginosa MTCC 4673 after 12 hrs by well diffusion method; format: functional; conditions: MTCC 4673, 12 h
# [14] = tested on: Mycolicibacterium smegmatis; assay: Antimicrobial activity against Mycobacterium smegmatis MTCC 943 at 50 ug/mL after 12 hrs by well diffusion method; format: functional; conditions: for zone of inhibition at 50 µg/mL: MTCC 943, 12 h, read-out: DIZ
# [15] = tested on: Mycolicibacterium smegmatis; assay: Antimicrobial activity against Mycobacterium smegmatis MTCC 943 after 12 hrs by well diffusion method; format: functional; conditions: MTCC 943, 12 h
# Penicillium chrysogenum = assay: Antimicrobial activity against Penicillium chrysogenum MTCC 6795 at 50 to 100 ug/mL after 48 hrs by well diffusion method; format: functional, organism-based
Structure (SMILES),MIC (Candida albicans [1]),zone of inhibition at 100 µg/mL (Pseudomonas aeruginosa [2]),zone of inhibition at 100 µg/mL (Staphylococcus aureus [3]),diameter of the inhibition zone (DIZ) (Salmonella typhimurium [4]),MIC (Salmonella typhimurium [5]),diameter of the inhibition zone (DIZ) (Salmonella typhimurium [6]),diameter of the inhibition zone (DIZ) (Candida albicans [7]),zone of inhibition at 100 µg/mL [8],zone of inhibition at 100 µg/mL (Candida albicans [9]),MIC (Staphylococcus aureus [10]),DIZ (Staphylococcus aureus [11]),zone of inhibition at 50 µg/mL (Pseudomonas aeruginosa [12]),MIC (Pseudomonas aeruginosa [13]),MIC [15],diameter of the inhibition zone (DIZ) (Pseudomonas aeruginosa [2]),diameter of the inhibition zone (DIZ) (Staphylococcus aureus [3]),diameter of the inhibition zone (DIZ) [8],diameter of the inhibition zone (DIZ) (Candida albicans [9]),diameter of the inhibition zone (DIZ) (Pseudomonas aeruginosa [12]),diameter of the inhibition zone (DIZ) [14],also measured
NNC(=O)c1cn(Cc2ccc(Cl)cc2Cl)c2cc(C(F)(F)F)ccc2c1=O,100 µg/mL,8 mm,8 mm,inactive,> 100 µg/mL,inactive,inactive,9 mm,7 mm,100 µg/mL,inactive,8 mm,25 µg/mL,25 µg/mL,–,–,–,–,–,–,zone of inhibition at 50 µg/mL [14]: 9 mm
CCOC(=O)c1cn(Cc2ccc(C#N)cc2)c2c(C(F)(F)F)cccc2c1=O,–,–,–,inactive,–,inactive,inactive,–,–,–,inactive,–,–,–,inactive,inactive,inactive,inactive,inactive,inactive,–
O=C(O)c1cn(Cc2ccc(Cl)cc2Cl)c2cc(C(F)(F)F)ccc2c1=O,50 µg/mL,–,10 mm,inactive,> 100 µg/mL,inactive,inactive,–,7 mm,100 µg/mL,inactive,–,> 100 µg/mL,> 100 µg/mL,inactive,–,inactive,–,inactive,inactive,–
OC(Cn1cncn1)(Cn1cncn1)c1ccc(F)cc1F [FLUCONAZOLE],< 10 µg/mL,–,–,–,–,–,–,–,29 mm,–,–,–,–,–,–,–,–,–,–,–,zone of inhibition at 50 µg/mL (Candida albicans [7]): 26.3 mm
CCOC(=O)c1cn(Cc2ccc(Cl)cc2Cl)c2c(C(F)(F)F)cccc2c1=O,> 100 µg/mL,7 mm,9 mm,inactive,> 100 µg/mL,inactive,inactive,8 mm,–,100 µg/mL,inactive,7 mm,50 µg/mL,50 µg/mL,–,–,–,inactive,–,–,Activity (Penicillium chrysogenum): inactive; zone of inhibition at 50 µg/mL [14]: 7 mm
C#CCn1cc(C(=O)OCC)c(=O)c2cccc(C(F)(F)F)c21,–,–,–,inactive,–,inactive,inactive,–,–,–,inactive,–,–,–,inactive,inactive,inactive,inactive,inactive,inactive,–
CCOC(=O)c1cn(Cc2ccc(C#N)cc2)c2cc(C(F)(F)F)ccc2c1=O,> 100 µg/mL,8 mm,–,–,50 µg/mL,–,inactive,–,–,> 100 µg/mL,inactive,8 mm,25 µg/mL,50 µg/mL,–,inactive,inactive,inactive,–,–,zone of inhibition at 100 µg/mL (Salmonella typhimurium [4]): 8 mm; zone of inhibition at 50 µg/mL (Salmonella typhimurium [6]): 7.3 mm; Activity (Penicillium chrysogenum): inactive; zone of inhibition at 50 µg/mL [14]: 7 mm
O=C(O)c1cn(Cc2ccc(Cl)cc2Cl)c2c(C(F)(F)F)cccc2c1=O,50 µg/mL,14 mm,9 mm,inactive,> 100 µg/mL,inactive,–,12 mm,9 mm,100 µg/mL,inactive,13.6 mm,25 µg/mL,25 µg/mL,–,–,–,–,–,–,zone of inhibition at 50 µg/mL (Candida albicans [7]): 7 mm; zone of inhibition at 50 µg/mL [14]: 11 mm
N#Cc1ccc(Cn2cc(C(=O)NN)c(=O)c3cccc(C(F)(F)F)c32)cc1,> 100 µg/mL,8 mm,8 mm,inactive,> 100 µg/mL,inactive,inactive,8 mm,–,100 µg/mL,inactive,8 mm,25 µg/mL,50 µg/mL,–,–,–,inactive,–,–,Activity (Penicillium chrysogenum): inactive; zone of inhibition at 50 µg/mL [14]: 7.3 mm
CCOC(=O)c1cn(Cc2ccc(Cl)cc2Cl)c2cc(C(F)(F)F)ccc2c1=O,–,–,–,inactive,–,inactive,inactive,–,–,–,inactive,–,–,–,inactive,inactive,inactive,inactive,inactive,inactive,–
N#Cc1ccc(Cn2cc(C(=O)O)c(=O)c3cccc(C(F)(F)F)c32)cc1,100 µg/mL,8 mm,8 mm,inactive,> 100 µg/mL,inactive,inactive,–,8 mm,100 µg/mL,inactive,8 mm,25 µg/mL,> 100 µg/mL,–,–,inactive,–,–,inactive,–
N#Cc1ccc(Cn2cc(C(=O)O)c(=O)c3ccc(C(F)(F)F)cc32)cc1,50 µg/mL,8 mm,–,inactive,> 100 µg/mL,inactive,–,–,8.33 mm,> 100 µg/mL,inactive,8 mm,25 µg/mL,> 100 µg/mL,–,inactive,inactive,–,–,inactive,zone of inhibition at 50 µg/mL (Candida albicans [7]): 7.6 mm
C#CCn1cc(C(=O)OCC)c(=O)c2ccc(C(F)(F)F)cc21,100 µg/mL,8 mm,9 mm,–,25 µg/mL,–,inactive,9 mm,8.33 mm,100 µg/mL,inactive,7 mm,50 µg/mL,100 µg/mL,–,–,–,–,–,inactive,zone of inhibition at 100 µg/mL (Salmonella typhimurium [4]): 11 mm; zone of inhibition at 50 µg/mL (Salmonella typhimurium [6]): 10.3 mm
C#CCn1cc(C(=O)O)c(=O)c2cccc(C(F)(F)F)c21,–,–,–,inactive,–,inactive,inactive,–,–,–,inactive,–,–,–,inactive,inactive,inactive,inactive,inactive,inactive,–
C#CCn1cc(C(=O)O)c(=O)c2ccc(C(F)(F)F)cc21,25 µg/mL,–,10 mm,–,25 µg/mL,–,–,7 mm,12 mm,100 µg/mL,inactive,–,> 100 µg/mL,100 µg/mL,inactive,–,–,–,inactive,inactive,zone of inhibition at 100 µg/mL (Salmonella typhimurium [4]): 8 mm; zone of inhibition at 50 µg/mL (Salmonella typhimurium [6]): 8 mm; zone of inhibition at 50 µg/mL (Candida albicans [7]): 12 mm
C#CCn1cc(C(=O)NN)c(=O)c2cccc(C(F)(F)F)c21,–,–,–,inactive,–,inactive,inactive,–,–,–,inactive,–,–,–,inactive,inactive,inactive,inactive,inactive,inactive,–
